Results on 29 compounds are retold here after US20040087571A1, “Methods of using CCR1 antagonists as immunomodulatory agents” (Pfizer Inc, priority 2002, published 2004).

The structures appear in SMILES notation.

`CC(C)(O)CC[C@H](C[C@H](O)[C@H](Cc1ccccc1F)NC(=O)c1cnc2ccccc2n1)C(N)=O` [Example 321, Quinoxaline-2-carboxylic acid [4(R)-carbamoyl-1(S)-(2-fluoro-benzyl)-2(S),7-dihydroxy-7-methyl-octyl]-amide] yielded a melting point of 147 to 148 °C.
Take `CC(C)(F)CC[C@H](C[C@H](O)[C@H](Cc1ccccc1)NC(=O)c1cnc2ccccc2n1)C(=O)NCCc1cccs1` [Example 229, Quinoxaline-2-carboxylic acid [1(S)-benzyl-7-fluoro-2(S)-hydroxy-7-methyl-4(R)-(2-thiophen-2-yl-ethylcarbamoyl)-octyl]-amide]: the melting point was in the range of 152 to 154 °C.
The same measure for `CC1(C)CCC(O)([C@H](C[C@H](O)[C@H](Cc2ccccc2)NC(=O)c2cnc3ccccc3n2)C(N)=O)CC1` [Example 304, Quinoxaline-2-carboxylic acid [1(S)-benzyl-4(S)-carbamoyl-2(S)-hydroxy-4-(1-hydroxy-4,4-dimethyl-cyclohexyl)-butyl]-amide]: 210 to 211 °C; for `CNC(=O)[C@H](CC(C)C)C[C@H](O)[C@H](Cc1ccc(OS(=O)(=O)C(F)(F)F)cc1)NC(=O)c1cnc2ccccc2c1` [Example 50, Trifluoro-methanesulfonic acid 4-{3(S)-hydroxy-7-methyl-5(R)-methylcarbamoyl-2(S)-[(quinoline-3-carbonyl)-amino]-octyl}-phenyl ester]: 168 to 170 °C.
The result for `CNC(=O)[C@H](CC(C)C)C[C@H](O)[C@H](Cc1ccc(O)cc1)NC(=O)c1cnc2ccccc2n1` [Example 65, Quinoxaline-2-carboxylic acid [2(S)-hydroxy-1(S)-(4-hydroxy-benzyl)-6-methyl-4(R)-methylcarbamoyl-heptyl]-amide] reads 170 to 172 °C; that for `CC(C)(O)CC[C@H](C[C@H](O)[C@H](Cc1ccccc1F)NC(=O)c1cnc2ccccc2n1)C(=O)NO` [Example 320, Quinoxaline-2-carboxylic acid [1(S)-(2-fluoro-benzyl)-2(S),7-dihydroxy-4(R)-hydroxycarbamoyl-7-methyl-octyl]-amide], 130 to 131 °C.
As for `CC(C)CC[C@H](C[C@H](O)[C@H](Cc1cscn1)NC(=O)c1cnc2ccccc2n1)C(N)=O` [Example 178, Quinoxaline-2-carboxylic acid (4(R)-carbamoyl-2(S)-hydroxy-7-methyl-1(S)-thiazol-4-ylmethyl-octyl)-amide], the melting point lay within 195 to 196 °C.
As to `CC(C)C[C@H](C[C@H](O)[C@H](CC1CCCCC1)NC(=O)c1cnc2ccccc2c1)C(N)=O` [Example 20, Quinoline-3-carboxylic acid (4(R)-carbamoyl-1(S)-cyclohexylmethyl-2(S)-hydroxy-6-methyl-heptyl)-amide], the melting point fell in the range of 186 to 188 °C.
The same measure for `CC1CC(C)CC(O)([C@H](C[C@H](O)[C@H](Cc2ccccc2)NC(=O)c2cnc3ccccc3n2)C(N)=O)C1` (stereo partly drawn) [Example 288, Quinoxaline-2-carboxylic acid [1(S)-benzyl-4(S)-carbamoyl-2(S)-hydroxy-4-(1-hydroxy-3,5-dimethyl-cyclohexyl)-butyl]-amide]: 234 to 236 °C; for `CC(C)(F)CC[C@H](C[C@H](O)[C@H](Cc1ccc(Cl)c(Cl)c1)NC(=O)c1cnc2c(F)c(F)ccc2c1)C(N)=O` [Example 156, 7,8-Difluoro-quinoline-3-carboxylic acid [4(R)-carbamoyl-1(S)-(3,4-dichloro-benzyl)-7-fluoro-2(S)-hydroxy-7-methyl-octyl]-amide]: 187 to 189 °C.
`CNC(=O)C[C@H](C[C@H](O)[C@H](Cc1ccccc1)NC(=O)c1cnc2ccccc2n1)C(=O)NC` [Example 151, 2(S)-{2(S)-hydroxy-4-phenyl-3(S)-[(quinoxaline-2-carbonyl)-amino]-butyl}-N1,N4-dimethyl-succinamide]: the melting point was 178 to 180 °C.
The same measure for `CC(C)(F)CC[C@H](C[C@H](O)[C@H](Cc1ccccc1)NC(=O)c1cnc2ccccc2n1)C(=O)NCc1ccccn1` [Example 211, Quinoxaline-2-carboxylic acid {1(S)-benzyl-7-fluoro-2(S)-hydroxy-7-methyl-4(R)-[(pyridin-2-ylmethyl)-carbamoyl]-octyl}-amide]: 138 to 140 °C; for `CNC(=O)[C@H](CC1CCC(F)(F)CC1)C[C@H](O)[C@H](Cc1ccccc1)NC(=O)c1cnc2ccccc2n1` [Example 132, Quinoxaline-2-carboxylic acid [1(S)-benzyl-5-(4,4-difluoro-cyclohexyl)-2(S)-hydroxy-4(R)-methylcarbamoyl-pentyl]-amide]: 170 to 172 °C; for `NC(=O)[C@@H](C[C@H](O)[C@H](Cc1ccccc1)NC(=O)c1cnc2ccccc2n1)C1(O)CCCCC1` [Example 260, Quinoxaline-2-carboxylic acid [1(S)-benzyl-4(S)-carbamoyl-2(S)-hydroxy-4-(1-hydroxy-cyclohexyl)-butyl]-amide]: 210 to 211 °C.
Consider `CC(C)CC[C@H](C[C@H](O)[C@H](Cc1ccccc1F)NC(=O)c1cnc2ccccc2n1)C(N)=O` [Example 175, Quinoxaline-2-carboxylic acid [4(R)-carbamoyl-1(S)-(2-fluoro-benzyl)-2(S)-hydroxy-7-methyl-octyl]-amide], for which the melting point is 213 to 215 °C.
Take `CNC(=O)[C@H](CC1CCCCC1)C[C@H](O)[C@H](CC1CCCCC1)NC(=O)c1cncc2ccccc12` [Example 62, Isoquinoline-4-carboxylic acid (5-cyclohexyl-1(S)-cyclohexylmethyl-2(S)-hydroxy-4(R)-methylcarbamoyl-pentyl)-amide]: the melting point is 220.5 to 224 °C.
As for `CC(C)(F)CC[C@H](C[C@H](O)[C@H](Cc1ccccc1)NC(=O)c1cnc2ccccc2n1)C(=O)NN` [Example 312, Quinoxaline-2-carboxylic acid (1(S)-benzyl-7-fluoro-4(R)-hydrazinocarbonyl-2(S)-hydroxyl-7-methyl-octyl)-amide], the melting point was 147 to 149 °C.
`NC(=O)[C@H](Cc1ccccc1)C[C@H](O)[C@H](Cc1ccccc1)NC(=O)c1cnc2ccccc2c1` [Example 287, Quinoline-3-carboxylic acid (1(S)-benzyl-4(R)-carbamoyl-2(S)-hydroxy-5-phenyl-pentyl)-amide] displayed a melting point of 203 to 206 °C.
Consider `CNC(=O)[C@H](CC(C)C)C[C@H](O)[C@H](Cc1ccc(F)cc1)NC(=O)c1cnc2ccccc2n1` [Example 90, Quinoxaline-2-carboxylic acid [1(S)-(4-fluoro-benzyl)-2(S)-hydroxy-6-methyl-4(R)-methylcarbamoyl-heptyl]-amide], for which the melting point was 153 to 156 °C.
In the case of `CNC(=O)[C@H](CC(C)C)C[C@H](O)[C@H](Cc1ccc2ccccc2c1)NC(=O)c1cnc2ccccc2n1` [Example 127, Quinoxaline-2-carboxylic acid (2(S)-hydroxy-6-methyl-4(R)-methylcarbamoyl-1(S)-naphthalen-2-ylmethyl-heptyl)-amide], the melting point was in the range of 121 to 123 °C.
Turning to `CNC(=O)[C@H](CCC(C)(C)F)C[C@H](O)[C@H](Cc1ccc(F)cc1)NC(=O)c1cnc2ccccc2n1` [Example 154, Quinoxaline-2-carboxylic acid [7-fluoro-1(S)-(4-fluoro-benzyl)-2(S)-hydroxy-7-methyl-4(R)-methylcarbamoyl-octyl]-amide], the melting point was in the range of 145 to 147 °C.
The same measure for `NC(=O)[C@@H](C[C@H](O)[C@H](Cc1ccccc1)NC(=O)c1cnc2ccccc2n1)C1(O)CCC(C(F)(F)F)CC1` (stereo partly drawn) [Example 308, Quinoxaline-2-carboxylic acid [1(S)-benzyl-4(S)-carbamoyl-2(S)-hydroxy-4-(1-hydroxy-4-trifluoromethyl-cyclohexyl)-butyl]-amide]: 250 to 252 °C; for `COc1ccc(CNC(=O)[C@H](CCC(C)(C)F)C[C@H](O)[C@H](Cc2ccccc2)NC(=O)c2cnc3ccccc3n2)cc1` [Example 236, Quinoxaline-2-carboxylic acid [1(S)-benzyl-7-fluoro-2(S)-hydroxy-4(R)-(4-methoxy-benzylcarbamoyl)-7-methyl-octyl]-amide]: 114 to 115 °C.
Compound `NC(=O)[C@@H](C[C@H](O)[C@H](Cc1ccccc1)NC(=O)c1cnc2ccccc2n1)C1CCCC1` [Example 171, Quinoxaline-2-carboxylic acid (1(S)-benzyl-4-carbamoyl-4(S)-cyclopentyl-2(S)-hydroxy-butyl)-amide] displayed a melting point of 126 to 128 °C.
`CC(C)(F)CC[C@H](C[C@H](O)[C@H](Cc1ccccc1)NC(=O)c1cnc2ccccc2n1)C(=O)NCCc1ccccn1` [Example 205, Quinoxaline-2-carboxylic acid [1(S)-benzyl-7-fluoro-2(S)-hydroxy-7-methyl-4(R)-(2-pyridin-2-yl-ethylcarbamoyl)-octyl]-amide] showed a melting point of 155 to 156 °C.
The result for `NC(=O)[C@H](Cc1ccccc1F)C[C@H](O)[C@H](Cc1ccccc1)NC(=O)c1cnc2ccccc2n1` [Example 280, Quinoxaline-2-carboxylic acid [1(S)-benzyl-4(R)-carbamoyl-5-(2-fluoro-phenyl)-2(S)-hydroxy-pentyl]-amide] reads 171 to 173 °C; that for `CNC(=O)[C@H](CC(C)C)C[C@H](O)[C@H](Cc1ccc(Cl)cc1)NC(=O)c1cnc2ccccc2c1` [Example 67, Quinoline-3-carboxylic acid [1(S)-(4-chloro-benzyl)-2(S)-hydroxy-6-methyl-4(R)-methylcarbamoyl-heptyl]-amide], 212.5 to 213.5 °C.
`NC(=O)[C@H](Cc1ccccc1)C[C@H](O)[C@H](Cc1ccccc1)NC(=O)c1cnc2c(F)c(F)ccc2c1` [Example 273, 7,8-Difluoro-quinoline-3-carboxylic acid (1(S)-benzyl-4(R)-carbamoyl-2(S)-hydroxy-5-phenyl-pentyl)-amide]: the melting point was 233 to 235 °C.
The same measure for `CC(C)(F)CC[C@H](C[C@H](O)[C@H](Cc1ccccc1)NC(=O)c1cnc2ccccc2n1)C(=O)NCc1cccnc1` [Example 199, Quinoxaline-2-carboxylic acid {1(S)-benzyl-7-fluoro-2(S)-hydroxy-7-methyl-4(R)-[(pyridin-3-ylmethyl)-carbamoyl]-octyl}-amide]: 188 to 191 °C.
